Assay results published in patent publication US7202280B2, “Methods for the treatment and prevention of pancreatitis and for induction of liver regeneration” (priority 2002, dated 2007).
Several values for one entry are separate records, joined by “and”; a condition that tells them apart may be missing. Identical values can stand only once.

Tests used:
SSAT = SSAT activity in SSAT transgenic rats after polyamine analogues without or with MDL72527; assay type: in vivo, rat
Procedure: FIGS. 9A–9B. Effect of polyamine analogues without or with MDL72527 on hepatic SSAT (FIG. 9A) and PAO (FIG. 9B) activities in SSAT transgenic rats. The rats were treated with the drugs as described in the legend for FIGS. 8A–8D. There were three to four animals in each group.
The production of transgenic Wistar rats (UKUR30) and mice (UKU181) harboring metallothionein-SSAT fusion gene (Suppola, S., Pietilä, M., Parkkinen, J. J., Korhonen, V. P., Alhonen, L., Halmekytö, M., Porter, C. W., and Jänne, J. (1999) Biochem. J. 338, 311–316) has been described earlier (Alhonen, L., Parkkinen, J. J., Keinänen, T., Sinervirta, R., Herzig, K. H., and Jänne, J. (2000) Proc. Natl. Acad. Sci. U.S.A. 97, 8290–8295; Lukkarinen, J., Gröhn, O., Sinervirta, R., Järvinen, A., Kauppinen, R. A., Jänne, J., and Alhonen, L. (1997) Stroke 28, 639–645). Partial hepatectomy was carried out according to the original method of Higgins and Anderson (Higgins, G. H., and Anderson, R. M. (1931) Arch. Pathol. 12, 186–202). […]
PAO activity was measured to verify the effectiveness of MDL72527 treatment and to determine whether the analogues have any effect on its activity. […]

[1] = tested on: rats with cerulein-induced pancreatitis; test: Cerulein-induced pancreatitis; assay type: in vivo, rat
Procedure: FIG. 7 Effect of pancreatic-associated edema by methylspermidine in rats with cerulein-induced pancreatitis. The animals received cerulein 24 h before sacrifice with or without methylspermidine (50 mg/kg) as a single dose 4 h before cerulein. Three to five animals in each group. Me-Spd, methylspermidine. Administration of cerulein induces a non-necrotizing pancreatitis in rodents. Cerulein-induced pancreatitis is characterized by a pronounced increase in plasma/serum amylase activity.

[2] = tested on: SSAT transgenic rats (UKUR30); test: Pancreatic zinc, SSAT activity and polyamine levels in zinc induced pancreatitis treated with MeSpd; assay type: in vivo; settings: single animals
Procedure: Transgenic UKUR30 female rats (weighting about 200 g) were used for the experiments. Pancreatitis was initiated with zinc 10 mg/kg treatment. Experiments were separated in five different parts (Exp. 1–5). Animals treated with α-MeSPD received 50 mg/kg i.p at the indicated time point(s). The pooled data from all of the experiment is shown in tables 4 A/B/C/D. First histological signs of pancreatic failure were evident within 6 h after the zinc. Pancreatic failure steadily increases until 24 hours when the first animals died. Within 48 hours mortality was almost 70% in control zinc treated rats. […].
Tables 4 A/B/C/D present the natural course of zinc induced pancreatitis. Histological scoring along with plasma amylase activity is shown as a measure of severity of pancreatitis. Tissue zinc and polyamine levels and SSAT activity were determined to verify the response of each animal to the treatment. No other data than the number of death animals is shown from deceased animals. Transgenic UKUR30 female rats weighting about 200 grams were used for the experiment. Zinc was injected i.p. 10 mg/kg to initiate acute pancreatitis. Animals treated with MeSpd received one 50 mg/kg dosage i.p. at the indicated time point(s). At indicated time points live animals were sacrificed and pancreas was subjected to further analysis. […] Values for polyamines are expressed as pmoles/mg/wet weight. SSAT pmoles/10 min/mg wet weight.

[3] = Zn 24 h, MeSpd 50 mg/kg i.p. at 3 h/8 h
[4] = Zn 24 h, MeSpd 50 mg/kg i.p. at 6 h/12 h
[5] = Zn 24 h, MeSpd 50 mg/kg i.p. at 12 h
[6] = Zn 48 h, MeSpd 50 mg/kg i.p. at 3 h/8 h
[7] = Zn 48 h, MeSpd 50 mg/kg i.p. at 4 h/24 h
[8] = Zn 48 h, MeSpd 50 mg/kg i.p. at 12 h/24 h

CC(N)CCNCCCCNCCC(C)N (stereo not drawn) [bis-α-methylspermine, 1,12-dimethylspermine]
hepatic SSAT activity (SSAT; analogue 25 mg/kg i.p. twice): significantly increased hepatic SSAT activity | hepatic SSAT activity (SSAT; analogue combined with MDL72527): further enhanced

CC(N)CCNCCCCN (stereo not drawn) [α-methylspermidine, 1-methylspermidine]
amylase levels ([1]; cerulein-induced pancreatitis): does not normalize amylase levels | pancreatitis-associated edema ([1]; cerulein, single dose 50 mg/kg): reduces the pancreatitis-associated edema | MeSpd (pancreas) [2, 3]: 1943 pmoles/mg/wet weight and 1425 pmoles/mg/wet weight and 907 pmoles/mg/wet weight and 0 pmoles/mg/wet weight | N^1AcSpd (pancreas) [2, 3]: 54 pmoles/mg/wet weight and 58 pmoles/mg/wet weight and 31 pmoles/mg/wet weight and 0 pmoles/mg/wet weight | PU (pancreas) [2, 3]: 3231 pmoles/mg/wet weight and 2820 pmoles/mg/wet weight and 2269 pmoles/mg/wet weight and 2159 pmoles/mg/wet weight | SPD (pancreas) [2, 3]: 1165 pmoles/mg/wet weight and 265 pmoles/mg/wet weight and 119 pmoles/mg/wet weight and 3405 pmoles/mg/wet weight | SPM (pancreas) [2, 3]: 299 pmoles/mg/wet weight and 128 pmoles/mg/wet weight and 69 pmoles/mg/wet weight and 441 pmoles/mg/wet weight | SSAT (pancreas) [2, 3]: 50 pmoles/10 min/mg wet weight and 91 pmoles/10 min/mg wet weight and 100 pmoles/10 min/mg wet weight and 18 pmoles/10 min/mg wet weight | MeSpd (pancreas) [2, 4]: 2268 pmoles/mg/wet weight and 3242 pmoles/mg/wet weight and 3098 pmoles/mg/wet weight and 745 pmoles/mg/wet weight and 798 pmoles/mg/wet weight and 954 pmoles/mg/wet weight and 834 pmoles/mg/wet weight and 1993 pmoles/mg/wet weight and 728 pmoles/mg/wet weight | N^1AcSpd (pancreas) [2, 4]: 113 pmoles/mg/wet weight and 45 pmoles/mg/wet weight and 43 pmoles/mg/wet weight and 66 pmoles/mg/wet weight and 71 pmoles/mg/wet weight and 98 pmoles/mg/wet weight and 134 pmoles/mg/wet weight and 20 pmoles/mg/wet weight and 59 pmoles/mg/wet weight | PU (pancreas) [2, 4]: 6768 pmoles/mg/wet weight and 6932 pmoles/mg/wet weight and 4915 pmoles/mg/wet weight and 2335 pmoles/mg/wet weight and 1932 pmoles/mg/wet weight and 2401 pmoles/mg/wet weight and 1911 pmoles/mg/wet weight and 3790 pmoles/mg/wet weight and 1935 pmoles/mg/wet weight | SPD (pancreas) [2, 4]: 478 pmoles/mg/wet weight and 1114 pmoles/mg/wet weight and 1297 pmoles/mg/wet weight and 108 pmoles/mg/wet weight and 96 pmoles/mg/wet weight and 105 pmoles/mg/wet weight and 84 pmoles/mg/wet weight and 1096 pmoles/mg/wet weight and 100 pmoles/mg/wet weight | SPM (pancreas) [2, 4]: 213 pmoles/mg/wet weight and 431 pmoles/mg/wet weight and 408 pmoles/mg/wet weight and 41 pmoles/mg/wet weight and 54 pmoles/mg/wet weight (2×) and 50 pmoles/mg/wet weight and 276 pmoles/mg/wet weight and 46 pmoles/mg/wet weight | SSAT (pancreas) [2, 4]: 1403 pmoles/10 min/mg wet weight and 37 pmoles/10 min/mg wet weight and 40 pmoles/10 min/mg wet weight and 10372 pmoles/10 min/mg wet weight and 3866 pmoles/10 min/mg wet weight and 5823 pmoles/10 min/mg wet weight and 6216 pmoles/10 min/mg wet weight and 1024 pmoles/10 min/mg wet weight and 5748 pmoles/10 min/mg wet weight | MeSpd (pancreas) [2, 5]: 1113 pmoles/mg/wet weight and 371 pmoles/mg/wet weight and 333 pmoles/mg/wet weight and 334 pmoles/mg/wet weight | N^1AcSpd (pancreas) [2, 5]: 16 pmoles/mg/wet weight and 57 pmoles/mg/wet weight and 65 pmoles/mg/wet weight and 42 pmoles/mg/wet weight | PU (pancreas) [2, 5]: 5328 pmoles/mg/wet weight and 3361 pmoles/mg/wet weight and 2782 pmoles/mg/wet weight and 3116 pmoles/mg/wet weight | SPD (pancreas) [2, 5]: 1360 pmoles/mg/wet weight and 124 pmoles/mg/wet weight and 153 pmoles/mg/wet weight and 126 pmoles/mg/wet weight | SPM (pancreas) [2, 5]: 479 pmoles/mg/wet weight and 47 pmoles/mg/wet weight and 61 pmoles/mg/wet weight and 45 pmoles/mg/wet weight | SSAT (pancreas) [2, 5]: 29 pmoles/10 min/mg wet weight and 6855 pmoles/10 min/mg wet weight and 4852 pmoles/10 min/mg wet weight and 6866 pmoles/10 min/mg wet weight | MeSpd (pancreas) [2, 6]: 646 pmoles/mg/wet weight and 1043 pmoles/mg/wet weight and 768 pmoles/mg/wet weight | N^1AcSpd (pancreas) [2, 6]: 43 pmoles/mg/wet weight and 21 pmoles/mg/wet weight and 29 pmoles/mg/wet weight | PU (pancreas) [2, 6]: 1538 pmoles/mg/wet weight and 1268 pmoles/mg/wet weight and 649 pmoles/mg/wet weight | SPD (pancreas) [2, 6]: 367 pmoles/mg/wet weight and 313 pmoles/mg/wet weight and 148 pmoles/mg/wet weight | SPM (pancreas) [2, 6]: 119 pmoles/mg/wet weight and 90 pmoles/mg/wet weight and 51 pmoles/mg/wet weight | SSAT (pancreas) [2, 6]: 92 pmoles/10 min/mg wet weight and 82 pmoles/10 min/mg wet weight and 90 pmoles/10 min/mg wet weight | MeSpd (pancreas) [2, 7]: 1066 pmoles/mg/wet weight and 2249 pmoles/mg/wet weight and 1415 pmoles/mg/wet weight and 1041 pmoles/mg/wet weight and 1493 pmoles/mg/wet weight | N^1AcSpd (pancreas) [2, 7]: 0 pmoles/mg/wet weight | PU (pancreas) [2, 7]: 1522 pmoles/mg/wet weight and 2416 pmoles/mg/wet weight and 1960 pmoles/mg/wet weight and 1744 pmoles/mg/wet weight and 1896 pmoles/mg/wet weight | SPD (pancreas) [2, 7]: 1344 pmoles/mg/wet weight and 1052 pmoles/mg/wet weight and 1928 pmoles/mg/wet weight and 2533 pmoles/mg/wet weight and 369 pmoles/mg/wet weight | SPM (pancreas) [2, 7]: 238 pmoles/mg/wet weight and 254 pmoles/mg/wet weight and 339 pmoles/mg/wet weight and 557 pmoles/mg/wet weight and 112 pmoles/mg/wet weight | SSAT (pancreas) [2, 7]: 10 pmoles/10 min/mg wet weight and 28 pmoles/10 min/mg wet weight and 17 pmoles/10 min/mg wet weight and 8 pmoles/10 min/mg wet weight and 75 pmoles/10 min/mg wet weight | MeSpd (pancreas) [2, 8]: 452 pmoles/mg/wet weight and 1053 pmoles/mg/wet weight and 560 pmoles/mg/wet weight and 629 pmoles/mg/wet weight | N^1AcSpd (pancreas) [2, 8]: 70 pmoles/mg/wet weight and 51 pmoles/mg/wet weight and 49 pmoles/mg/wet weight and 42 pmoles/mg/wet weight | PU (pancreas) [2, 8]: 889 pmoles/mg/wet weight and 7496 pmoles/mg/wet weight and 1078 pmoles/mg/wet weight and 1345 pmoles/mg/wet weight | SPD (pancreas) [2, 8]: 79 pmoles/mg/wet weight and 1571 pmoles/mg/wet weight and 165 pmoles/mg/wet weight and 456 pmoles/mg/wet weight | SPM (pancreas) [2, 8]: 35 pmoles/mg/wet weight and 422 pmoles/mg/wet weight and 61 pmoles/mg/wet weight and 141 pmoles/mg/wet weight | SSAT (pancreas) [2, 8]: 548 pmoles/10 min/mg wet weight and 42 pmoles/10 min/mg wet weight and 4391 pmoles/10 min/mg wet weight and 2001 pmoles/10 min/mg wet weight
